US8765720B2, “Combination therapy for the treatment of multiple myeloma” (Cephalon, Inc., priority 2009, dated 2014)

How the values were obtained:
LAGλ-1 = LAGλ-1 MM tumor model; type: in vivo; details: COMPOUND 1 monotherapy
LAGκ-1A tumor = test: Intramuscular LAGκ-1A tumor xenograft model (serum hIgG, tumor volume); details: for serum hIgG levels: 28 days of treatment; for serum hIgG levels and tumor volume vs vehicle: alone or together
Procedure: (§1) Six- to 8-week-old male severe combined immunodeficient (SCID) mice were obtained from the Jackson Laboratory (Bar Harbor, Me.) and maintained in a specific pathogen-free area in our animal resources facility. All animal studies were conducted according to protocols approved by the Institutional Animal Care and Use Committee. Animals were anesthetized with ketamine, xylazine, and isoflurane prior to surgery and were euthanized when tumors reached 2 cm in diameter.
(§2) Biopsy tissue was surgically implanted in the hind limbs of anesthetized SCID mice and passaged through succeeding generations (32).
(§3) Myeloma tumors (LAGκ-1A or LAGκ-1B) were excised from an anesthetized donor mouse, sectioned into 20 to 40 mm^3 pieces, and surgically implanted into the left superficial gluteal muscle of anesthetized naive SCID mice. Recipient mice received weekly injections of anti-asialo GM1 rabbit serum (Wako Bioproducts, Richmond, Va.) to further suppress immune activity. Mice were blindly assigned to one of the experimental groups, and treatment was initiated 7 to 21 days after tumor implantation. COMPOUND 1 was administered via oral gavage daily (0.5-5.0 mg/kg) or twice weekly (5-10 mg/kg). COMPOUND 1 was also administered twice weekly (W, F) via either IV injection (0.5-3.0 mg/kg) or oral gavage (10 mg/kg), as specified. Melphalan (1 mg/kg) was provided via weekly intraperitoneal (IP) injections (W). Bortezomib (0.5 mg/kg) was dispensed twice weekly (T, Th) via IV injection. Control treatment consisted of COMPOUND 1 diluent (3.2 mL 5% mannitol and 800 μL propylene glycol) alone.
Mice bearing MM tumors underwent weekly retro-orbital bleeds. Resulting samples were spun at 13,000 rpm for 30 minutes to isolate serum. The hIgG ELISA kit (Bethyl Laboratories, Montgomery, Tex.) was used according to the manufacturer's specifications. Absorbance at 450 nm with a reference wavelength of 550 nm was determined on a μQuant microplate spectrophotometer with KC Junior software (Bio-Tek Instruments, Winooski, Vt.). Data graphed are the mean±SEM with n=7-8 mice/group.
(§4) As a direct measurement of tumor growth, calipers were used to assess tumor volume weekly, and the formula for an ellipsoid volume was applied ( 4/3π×[width/2]^2×[length/2]).
(§5) Percent inhibition of tumor growth is represented as the tumor volume of the test drug group over the tumor volume of the untreated group (T/C). The optimal value is the minimal T/C ratio that reflects the maximal tumor growth inhibition achieved. The criterion for efficacy for the T/C ratio is ≦42%, according to National Cancer Institute (NCI) standard criteria (44).
(§6) Efficacy of drug therapy against tumors was standardized to the time (t) required for the untreated tumor to grow to a determined size based on the greatest difference in time to reach a tumor volume between the control and treatment group. This value can be represented as the growth delay (in days) between treated and control (tt−tc) (44).
(§7) Tumor growth and hIgG levels were analyzed in terms of treatment group means and standard error. Student's t-test was applied to determine the statistical significance of differences between treatment groups. Minimal significance level was P<0.05.

LAGκ-1B tumor = test: Intramuscular LAGκ-1B tumor xenograft model (tumor volume); details: for delay of tumor volume growth to 300 mm^3: oral 5 mg/kg daily; for delay of tumor volume at 220 mm^3 / Percentage T/C: oral 10 mg/kg twice weekly
Procedure: as §1, §2
as §3, with “Melphalan (1 mg/kg) was provided via weekly intraperitoneal (IP) injections (W).” left out
as §4, §5, §6, §7

RPMI8226 cells = test: Apoptotic assay by annexin V and propidium iodide staining; type: cell-based, human; details: 2.5 nM for each drug, 30 hours
Procedure: To quantify apoptosis in response to drug treatment, RPMI8226 cells (5×10^5 cells per well) were incubated with vehicle or PIs at 37° C. and 5% CO2 for 30 hours. As a positive control, cells were incubated with 250 ng/mL of actinomycin D for 24 or 48 hours. Cells were then washed twice with phosphate-buffered saline, resuspended in binding buffer (100 mM HEPES/NaOH, pH 7.5 containing 1.4 M NaCl and 25 mM CaCl2), and stained with fluorescein isothiocyanate (FITC)-conjugated annexin V and with the fluorescent dye propidium iodide (PrI), according to the manufacturer's protocol (BioVision, Mountain View, Calif.). For each drug treatment, 1×10^5 gated events were recorded. Cells negative for both PI and annexin V staining were considered live; annexin V-positive, PrI-negative cells were considered early apoptotic; annexin V-positive, PrI-positive cells were considered late apoptotic. Flow cytometric analyses were performed using a Beckman Coulter FC500 cytometer with Cytomics CXP software (Beckman Coulter, Fullerton, Calif.).

[1] = bortezomib 0.5 mg/kg IV, COMPOUND 1 1 mg/kg IV, alone or together

CC(C)C[C@H](NC(=O)[C@@H](NC(=O)c1cccc(-c2ccccc2)n1)[C@@H](C)O)B(O)O [COMPOUND 1, [(1R)-1-[[(2S,3R)-3-hydroxy-2-[6-phenyl-pyridine-2-carbonyl)amino]-1-oxobutyl]amino]-3-methylbutylboronic acid]
Ig levels and tumor volumes (LAGλ-1): statistically significant reduction
serum hIgG levels (LAGκ-1A tumor; 1 mg/kg and 3 mg/kg IV twice weekly, P=0.0001 / P=0.0002 vs control): essentially undetectable
serum hIgG levels and tumor volume vs vehicle (LAGκ-1A tumor; COMPOUND 1 1 mg/kg IV, bortezomib 0.5 mg/kg IV, twice weekly): only partially inhibited
reduction in the volume of tumors vs control (LAGκ-1A tumor; IV 1 or 3 mg/kg twice weekly, after 4 weeks, P=0.0001): approximately 15 fold
serum hIgG levels and tumor volume vs vehicle (LAGκ-1A tumor; melphalan 1 mg/kg IP weekly, COMPOUND 1 1 mg/kg IV twice weekly, 3 weeks): nonsignificant decrease
delay of tumor volume growth to 87.5 mm^3 (LAGκ-1A tumor; mouse, in vivo, po, 5 mg/kg): 53 days
tumor inhibition (hIgG, tumor volume) (LAGκ-1A tumor; mouse, in vivo, po, 5 mg/kg): significant tumor inhibition
mice died of drug-related toxicity (LAGκ-1A tumor; oral 5 mg/kg daily): Two of fifteen
delay of tumor volume growth to 87.5 mm^3 (LAGκ-1A tumor; oral 5 mg/kg daily, vs untreated control): 530%
mice surviving five weeks of dosing and three week follow-up (LAGκ-1A tumor; oral 10 mg/kg twice weekly): 15/15
Percentage T/C (LAGκ-1A tumor; oral 10 mg/kg twice weekly, day 21): 29.3%
Percentage T/C (LAGκ-1A tumor; oral 10 mg/kg twice weekly, day 28): 17.3%
delay of tumor volume growth to 700 mm^3 (LAGκ-1A tumor; oral 10 mg/kg twice weekly, day 32.5 control vs day 63): 30.5 days
Percentage T/C (LAGκ-1A tumor; oral 10 mg/kg twice weekly, day 35): 6.1%
Percentage T/C (LAGκ-1A tumor; oral 10 mg/kg twice weekly, day 42): 6.1%
Percentage T/C (LAGκ-1A tumor; oral 10 mg/kg twice weekly, day 49): 10.6%
human paraprotein secretion and tumor volume (LAGκ-1A tumor; oral 10 mg/kg twice weekly, three weeks (day 28), hIgG P=0.0011, tumor volume P=0.001): significant inhibition of both human paraprotein secretion and reduction of tumor volume
delay of tumor volume growth to 700 mm^3 (LAGκ-1A tumor; oral 10 mg/kg twice weekly, vs no treatment): 93.8%
tumor volume vs control-treated tumors (LAGκ-1A tumor; oral (10 mg/kg twice weekly), 14 days of treatment, P=0.0002): marked reduction in tumor volume
serum hIgG levels (LAGκ-1A tumor; oral (10 mg/kg twice weekly), P=0.0001): negligible
serum hIgG levels vs control-treated animals (LAGκ-1A tumor; oral (10 mg/kg twice weekly), within 2 weeks of treatment, P=0.0007): significantly lower
anti-myeloma activity (human IgG levels and tumor volumes) (LAGκ-1A tumor; oral, daily, 3 mg/kg): moderate anti-myeloma activity
paraprotein secretion from tumors (LAGκ-1A tumor; single-agent IV twice weekly, escalating doses): dose-dependent decrease in paraprotein secretion
tumors, times smaller than control-treated mice (LAGκ-1B tumor; 3 mg/kg IV or 10 mg/kg oral twice weekly, after 14 days, P=0.0008 / P=0.0028): 8 to 12 times
days to tumor progression (LAGκ-1B tumor; [1]): 35 days
survival longer than vehicle-treated mice (LAGκ-1B tumor; [1]): 20%
tumor growth vs vehicle (LAGκ-1B tumor; bortezomib 0.5 mg/kg IV, COMPOUND 1 1 mg/kg IV, alone or together, combination after 21 days P=0.0014): only modestly suppresses
drug-related / toxicity-related deaths (LAGκ-1B tumor; by day 70, bortezomib 0.5 mg/kg IV, COMPOUND 1 1 mg/kg IV, alone or together): one death each
tumor volume (LAGκ-1B tumor; mouse, in vivo): partially inhibited
body weight (LAGκ-1B tumor; mouse, in vivo, po): without significant loss of body weight
tumor volume inhibition (LAGκ-1B tumor; oral 5 mg/kg daily or 10 mg/kg twice weekly, day 35, P=0.0327 / P=0.0018): significant tumor volume inhibition
delay of tumor volume growth to 300 mm^3 (LAGκ-1B tumor; day 31 control vs day 42): 11 days
delay of tumor volume growth to 300 mm^3 (LAGκ-1B tumor; vs no treatment): 35.5%
delay of tumor volume at 220 mm^3 (LAGκ-1B tumor; day 28 control vs day 42): 14 days
Percentage T/C (LAGκ-1B tumor; day 35): 21.6%
Percentage T/C (LAGκ-1B tumor; day 42): 27.5%
Percentage T/C (LAGκ-1B tumor; day 49): 26.1%
Percentage T/C (LAGκ-1B tumor; day 56): 30.5%
delay of tumor volume at 220 mm^3 (LAGκ-1B tumor; vs untreated control): 50%
proportion of cells in early apoptosis (PrI−/Annexin V+) (RPMI8226 cells): 10.4 % of cells
